Tests used:
HOP-62 = test: Growth inhibition of human HOP62 cells assessed as cell growth at 0.01 uM incubated for 48 hrs by sulforhodamine B assay relative to control; format: functional; conditions: HOP-62, 48 h, read-out: Activity
NCI-H322M = test: Growth inhibition of human NCI-H322M cells incubated for 48 hrs by sulforhodamine B assay; format: functional, cell-based
COLO 205 = test: Growth inhibition of human COLO205 cells assessed as cell growth at 0.01 uM incubated for 48 hrs by sulforhodamine B assay relative to control; format: functional; conditions: COLO 205, 48 h, read-out: Activity
SN12C [1] = test: Growth inhibition of human SN12C cells incubated for 48 hrs by sulforhodamine B assay; format: functional, cell-based
ACHN = test: Growth inhibition of human ACHN cells assessed as cell growth at 0.1 uM incubated for 48 hrs by sulforhodamine B assay relative to control; format: functional; conditions: read-out: Activity
RXF 393 [2] = test: Growth inhibition of human RXF393 cells assessed as cell growth at 100 uM incubated for 48 hrs by sulforhodamine B assay relative to control; format: functional; conditions: RXF 393, 48 h, read-out: Activity
UACC-257 = test: Growth inhibition of human UACC257 cells assessed as cell growth at 1 uM incubated for 48 hrs by sulforhodamine B assay relative to control; format: functional; conditions: UACC-257, 48 h, read-out: Activity
UACC-62 = test: Growth inhibition of human UACC62 cells assessed as cell growth at 0.1 uM incubated for 48 hrs by sulforhodamine B assay relative to control; format: functional; conditions: UACC-62, 48 h, read-out: Activity
PC-3 [3] = test: Growth inhibition of human PC3 cells assessed as cell growth at 0.01 uM incubated for 48 hrs by sulforhodamine B assay relative to control; format: functional; conditions: PC-3, 48 h, read-out: Activity
HL-60(TB) = test: Growth inhibition of human HL-60(TB) cells assessed as cell growth at 100 uM incubated for 48 hrs by sulforhodamine B assay relative to control; format: functional; conditions: HL-60, 48 h, read-out: Activity
SK-MEL-28 = test: Growth inhibition of human SK-MEL-28 cells assessed as cell growth at 100 uM incubated for 48 hrs by sulforhodamine B assay relative to control; format: functional; conditions: SK-MEL-28, 48 h, read-out: Activity
SK-OV-3 = test: Growth inhibition of human SKOV3 cells assessed as cell growth at 100 uM incubated for 48 hrs by sulforhodamine B assay relative to control; format: functional; conditions: SK-OV-3, 48 h, read-out: Activity
SK-MEL-2 [4] = test: Growth inhibition of human SK-MEL-2 cells assessed as cell growth at 0.01 uM incubated for 48 hrs by sulforhodamine B assay relative to control; format: functional; conditions: SK-MEL-2, 48 h, read-out: Activity
MOLT-4 [5] = test: Growth inhibition of human MOLT4 cells incubated for 48 hrs by sulforhodamine B assay; format: functional, cell-based; conditions: MOLT-4, 48 h
SR = test: Growth inhibition of human SR cells assessed as cell growth at 0.1 uM incubated for 48 hrs by sulforhodamine B assay relative to control; format: functional; conditions: read-out: Activity
HCT-116 = test: Growth inhibition of human HCT116 cells assessed as cell growth at 0.1 uM incubated for 48 hrs by sulforhodamine B assay relative to control; format: functional; conditions: HCT-116, 48 h, read-out: Activity
SNB-19 = test: Growth inhibition of human SNB19 cells assessed as cell growth at 0.1 uM incubated for 48 hrs by sulforhodamine B assay relative to control; format: functional; conditions: SNB-19, 48 h, read-out: Activity
786-0 [6] = test: Growth inhibition of human 786-0 cells incubated for 48 hrs by sulforhodamine B assay; format: functional, cell-based; conditions: 786-0, 48 h
SK-MEL-2 [7] = test: Growth inhibition of human SK-MEL-2 cells incubated for 48 hrs by sulforhodamine B assay; format: functional, cell-based; conditions: SK-MEL-2, 48 h
MOLT-4 [8] = test: Growth inhibition of human MOLT4 cells assessed as cell growth at 0.1 uM incubated for 48 hrs by sulforhodamine B assay relative to control; format: functional; conditions: MOLT-4, 48 h, read-out: Activity
SN12C [9] = test: Growth inhibition of human SN12C cells assessed as cell growth at 1 uM incubated for 48 hrs by sulforhodamine B assay relative to control; format: functional; conditions: read-out: Activity
NCI/ADR-RES = test: Growth inhibition of human NCI/ADR-RES cells assessed as cell growth at 100 uM incubated for 48 hrs by sulforhodamine B assay relative to control; format: functional; conditions: read-out: Activity
SF-539 = test: Growth inhibition of human SF539 cells assessed as cell growth at 0.01 uM incubated for 48 hrs by sulforhodamine B assay relative to control; format: functional; conditions: SF-539, 48 h, read-out: Activity
Malme-3M = test: Growth inhibition of human MALME-3M cells assessed as cell growth at 1 uM incubated for 48 hrs by sulforhodamine B assay relative to control; format: functional; conditions: read-out: Activity
NCI-H460 = test: Growth inhibition of human NCI-H460 cells assessed as cell growth at 1 uM incubated for 48 hrs by sulforhodamine B assay relative to control; format: functional; conditions: NCI-H460, 48 h, read-out: Activity
OVCAR-5 = test: Growth inhibition of human OVCAR5 cells incubated for 48 hrs by sulforhodamine B assay; format: functional, cell-based; conditions: OVCAR-5, 48 h
PC-3 [10] = test: Growth inhibition of human PC3 cells assessed as cell growth at 100 uM incubated for 48 hrs by sulforhodamine B assay relative to control; format: functional; conditions: PC-3, 48 h, read-out: Activity
786-0 [11] = test: Growth inhibition of human 786-0 cells assessed as cell growth at 0.01 uM incubated for 48 hrs by sulforhodamine B assay relative to control; format: functional; conditions: 786-0, 48 h, read-out: Activity
RXF 393 [12] = test: Growth inhibition of human RXF393 cells assessed as cell growth at 0.1 uM incubated for 48 hrs by sulforhodamine B assay relative to control; format: functional; conditions: RXF 393, 48 h, read-out: Activity
RXF 393 [13] = test: Growth inhibition of human RXF393 cells assessed as cell growth at 0.01 uM incubated for 48 hrs by sulforhodamine B assay relative to control; format: functional; conditions: RXF 393, 48 h, read-out: Activity
[14] = read-out: LC50 (the source's name)
[15] = read-out: pLC50 (the source's name) (converted)

Q: Which results are given for COc1cc(Cl)cc(-c2nn(-c3cccc(NC(=O)c4ccc(N5CCOCC5)c(C(F)(F)F)c4)c3)cc2-c2ccncc2)c1?
A: growth at 0.01 µM (HOP-62): 104%; GI50 (NCI-H322M; read-out: GI50): 7.37 µM; CC50 (NCI-H322M; [14]): > 100 µM; TGI (NCI-H322M; read-out: TGI): > 100 µM; GI50 (NCI-H322M; read-out: pGI50 (converted)): 74.1 µM; CC50 (NCI-H322M; [15]): > 100 µM; TGI (NCI-H322M; read-out: pTGI (converted)): > 100 µM; growth at 0.01 µM (COLO 205): 103%; GI50 (SN12C [1]; read-out: GI50): > 100 µM; LC50 (SN12C [1]; read-out: LC50): > 100 µM; TGI (SN12C [1]; read-out: TGI): > 100 µM; GI50 (SN12C [1]; read-out: pGI50 (converted)): > 100 µM; LC50 (SN12C [1]; read-out: pLC50 (converted)): > 100 µM; TGI (SN12C [1]; read-out: pTGI (converted)): > 100 µM; growth at 0.1 µM (ACHN): 91%; growth at 100 µM (RXF 393 [2]): -10%; growth at 1 µM (UACC-257): 98%; growth at 0.1 µM (UACC-62): 91%; growth at 0.01 µM (PC-3 [3]): 97%; growth at 100 µM (HL-60(TB)): -15%; growth at 100 µM (SK-MEL-28): 19%; growth at 100 µM (SK-OV-3): 70%; growth at 0.01 µM (SK-MEL-2 [4]): 96%; GI50 (MOLT-4 [5]; read-out: GI50): 5.49 µM; CC50 (MOLT-4 [5]; [14]): > 100 µM; TGI (MOLT-4 [5]; read-out: TGI): > 100 µM; GI50 (MOLT-4 [5]; read-out: pGI50 (converted)): 5.5 µM; CC50 (MOLT-4 [5]; [15]): > 100 µM; TGI (MOLT-4 [5]; read-out: pTGI (converted)): > 100 µM; growth at 0.1 µM (SR): 91%; growth at 0.1 µM (HCT-116): 97%; growth at 0.1 µM (SNB-19): 94%; GI50 (786-0 [6]; read-out: GI50): 3.73 µM; CC50 (786-0 [6]; [14]): > 100 µM; TGI (786-0 [6]; read-out: TGI): 29.6 µM; GI50 (786-0 [6]; read-out: pGI50 (converted)): 3.24 µM; CC50 (786-0 [6]; [15]): > 100 µM; TGI (786-0 [6]; read-out: pTGI (converted)): 29.5 µM; GI50 (SK-MEL-2 [7]; read-out: GI50): 2.11 µM; CC50 (SK-MEL-2 [7]; [14]): > 100 µM; TGI (SK-MEL-2 [7]; read-out: TGI): > 100 µM; GI50 (SK-MEL-2 [7]; read-out: pGI50 (converted)): 26.3 µM; CC50 (SK-MEL-2 [7]; [15]): > 100 µM; TGI (SK-MEL-2 [7]; read-out: pTGI (converted)): > 100 µM; growth at 0.1 µM (MOLT-4 [8]): 90%; growth at 1 µM (SN12C [9]): 89%; growth at 100 µM (NCI/ADR-RES): 30%; growth at 0.01 µM (SF-539): 99%; growth at 1 µM (Malme-3M): 58%; growth at 1 µM (NCI-H460): 96%; GI50 (OVCAR-5; read-out: GI50): 3.25 µM; CC50 (OVCAR-5; [14]): > 100 µM; TGI (OVCAR-5; read-out: TGI): > 100 µM; GI50 (OVCAR-5; read-out: pGI50 (converted)): 32.4 µM; CC50 (OVCAR-5; [15]): > 100 µM; TGI (OVCAR-5; read-out: pTGI (converted)): > 100 µM; growth at 100 µM (PC-3 [10]): 19%; growth at 0.01 µM (786-0 [11]): 96%; growth at 0.1 µM (RXF 393 [12]): 100%; growth at 0.01 µM (RXF 393 [13]): 97%

Source: ChEMBL document CHEMBL4308841, “Synthesis, in vitro antiproliferative activity, and kinase inhibitory effects of pyrazole-containing diarylureas and diarylamides” (Eur J Med Chem, 2018)
